Experimental data: the supplement of paper PMC10331698
± gives the standard deviation of the averaged measurements.

Key:
Test in all cases: LOEC (log10 uM (lowest observed effect concentration))
[1] = compound: CCN(CCO)S(=O)(=O)C(F)(F)C(F)(F)C(F)(F)C(F)(F)C(F)(F)C(F)(F)C(F)(F)C(F)(F)F [N-Ethyl-N-(2-hydroxyethyl)perfluorooctanesulfonamide]
Method: (§1)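 BioMAP Diversity Plus panel in human primary cell co-cultures, 4 concentrations in duplicate blinded samples. Responses are log10 fold change versus DMSO control, processed with tcpl v2.1.0. A hit is called when responses at any concentration exceed the cutoff (the larger of 3*bmad or log10(1.2)); the lowest observed effect concentration (modl_ga, log10 uM) is reported for hits.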

[2] = compound: C[N+](C)(C)CCCNS(=O)(=O)C(F)(F)C(F)(F)C(F)(F)C(F)(F)C(F)(F)C(F)(F)C(F)(F)C(F)(F)F [Perfluorooctanesulfonamido ammonium iodide]
Method: as §1

[3] = compound: OCCCC(F)(F)C(F)(F)C(F)(F)C(F)(F)C(F)(F)C(F)(F)C(F)(F)F [7:3 Fluorotelomer alcohol]
Method: as §1

[4] = compound: C=CC(=O)OCC(F)(F)C(F)(F)C(F)(F)C(F)(F)C(F)(F)C(F)(F)C(F)(F)F [1H,1H-Perfluorooctyl acrylate]
Method: as §1

Perfluorodecanoic acid = compound: O=C(O)C(F)(F)C(F)(F)C(F)(F)C(F)(F)C(F)(F)C(F)(F)C(F)(F)C(F)(F)C(F)(F)F [Perfluorodecanoic acid]
Method: as §1

[5] = compound: O=C(O)C(F)(F)C(F)(F)C(F)(F)C(F)(F)C(F)(F)C(F)(F)C(F)(F)C(F)F [9-H-Perfluorononanoic acid]
Method: as §1

[6] = compound: OCCC(F)(F)C(F)(F)C(F)(F)C(F)(F)C(F)(F)C(F)(F)F [6:2 Fluorotelomer alcohol]
Method: as §1

[7] = compound: FC(F)(F)C(F)(F)C(F)(F)C(F)(F)C(F)(F)CCI [1-Iodo-1H,1H,2H,2H-perfluoroheptane]
Method: as §1

[8] = compound: OCC(F)(F)OC(F)(F)C(F)(F)OC(F)(F)CO [1H,1H,8H,8H-Perfluoro-3,6-dioxaoctane-1,8-diol]
Method: as §1

Perfluoro-1-iodohexane = compound: FC(F)(F)C(F)(F)C(F)(F)C(F)(F)C(F)(F)C(F)(F)I [Perfluoro-1-iodohexane]
Method: as §1

[9] = compound: O=C(O)C(F)(F)C(F)(F)C(F)(F)OC(F)(C(F)(F)F)C(F)(F)F [Perfluoro-4-isopropoxybutanoic acid]
Method: as §1

[10] = compound: O=S(=O)(O)C(F)(F)C(F)(F)C(F)(F)C(F)(F)C(F)(F)C(F)(F)F [Perfluorohexanesulfonic acid]
Method: as §1

Perfluoroheptanoic acid = compound: O=C(O)C(F)(F)C(F)(F)C(F)(F)C(F)(F)C(F)(F)C(F)(F)F [Perfluoroheptanoic acid]
Method: as §1

[11] = compound: O=C(O)C(F)(F)OC(F)(F)C(F)(F)OC(F)(F)F [Perfluoro-3,6-dioxaheptanoic acid]
Method: as §1

| Test System | LOEC (log10 uM) [1] | LOEC (log10 uM) [2] | LOEC (log10 uM) [3] | LOEC (log10 uM) (Perfluorodecanoic acid) | LOEC (log10 uM) [5] | LOEC (log10 uM) [6] | also measured |
| --- | --- | --- | --- | --- | --- | --- | --- |
| BT xIL17F down | 1.3 | 1.3 | 1.3 | – | – | – | LOEC (log10 uM) [4]: 1.3 |
| BF4T PAI1 down | – | – | 1.78 | 1.3 | 0.845 | – | – |
| 3C Proliferation down | 0.573 ± 0.39 | 1.78 | 1.07 ± 0.32 | 1.78 | – | 1.78 | LOEC (log10 uM) [4]: 1.78; LOEC (log10 uM) [7]: 1.78 |
| BT Bcell Proliferation up | – | – | – | 1.78 | 1.78 | – | – |
| hDFCGF SRB down | 0.573 ± 0.39 | 1.78 | 1.3 | 1.78 | – | 1.78 | – |
| hDFCGF PAI1 down | 1.54 ± 0.34 | 1.78 | 1.3 | 1.54 ± 0.34 | – | 1.78 | – |
| BF4T MCP1 down | – | – | 1.54 ± 0.34 | 1.3 | 0.573 ± 0.39 | – | – |
| BE3C HLADR down | 1.3 | 1.78 | 1.78 | 1.3 | 1.07 ± 0.32 | – | – |
| hDFCGF IL8 down | – | 1.78 | 1.3 | 1.78 | – | 1.78 | – |
| IMphg CD40 down | – | 1.54 ± 0.34 | 1.78 | 1.78 | – | – | LOEC (log10 uM) [8]: 1.3 |
| 3C SRB down | 1.07 ± 0.32 | 1.78 | 1.3 | 1.78 | – | 1.78 | – |
| hDFCGF IP10 down | 1.07 ± 0.32 | 1.78 | 1.3 | 1.07 ± 0.32 | – | – | LOEC (log10 uM) [7]: 1.78 |
| LPS CD40 down | – | 1.78 | 1.78 | 1.78 | – | 1.78 | – |
| MyoF PAI1 down | – | 1.78 | 1.78 | 1.78 | – | – | LOEC (log10 uM) (Perfluoro-1-iodohexane): 1.78 |
| LPS IL8 up | – | – | – | – | 1.54 ± 0.34 | – | LOEC (log10 uM) [9]: 1.54 ± 0.34 |
| IMphg IL10 down | – | 1.3 | – | 1.78 | 1.78 | – | LOEC (log10 uM) [10]: 1.78 |
| BE3C IP10 down | 1.3 | 1.78 | 1.78 | 0.845 | 1.78 | – | – |
| MyoF CollagenIII down | 1.3 | 1.78 | 1.78 | 1.3 | – | – | LOEC (log10 uM) (Perfluoro-1-iodohexane): 1.78 |
| MyoF ACTA1 down | 1.3 | 1.3 | 1.78 | 1.78 | – | – | LOEC (log10 uM) (Perfluoro-1-iodohexane): 1.3 |
| BT xTNFa down | 1.3 | 1.54 ± 0.34 | 1.3 | – | – | 1.78 | – |
| IMphg IL8 up | 1.78 | – | – | – | 1.78 | – | LOEC (log10 uM) (Perfluoroheptanoic acid): 1.78; LOEC (log10 uM) [11]: 1.78; LOEC (log10 uM) [9]: 1.78 |
| hDFCGF ITAC down | 1.07 ± 0.32 | 1.78 | 1.3 | 1.3 | 1.54 ± 0.34 | 1.78 | LOEC (log10 uM) [7]: 1.78 |

| Test System | LOEC (log10 uM) [1] | LOEC (log10 uM) [2] | LOEC (log10 uM) [3] | LOEC (log10 uM) (Perfluorodecanoic acid) | LOEC (log10 uM) [5] | LOEC (log10 uM) [6] | also measured |
| --- | --- | --- | --- | --- | --- | --- | --- |
| BF4T Eotaxin3 down | – | – | 1.31 ± 0.66 | 1.3 | 0.845 | – | LOEC (log10 uM) [7]: 1.78 |
| BT PBMCCytotoxicity up | – | – | – | – | 1.78 | – | – |
| BF4T ICAM1 down | – | – | 1.78 | 1.3 | 1.07 ± 0.32 | – | – |
| hDFCGF SRB up | – | – | – | – | 1.54 ± 0.34 | – | – |
| SAg PBMCCytotoxicity down | 1.54 ± 0.34 | – | 1.3 | 1.78 | – | 1.78 | – |
| CASM3C Proliferation down | 1.3 | – | 1.3 | – | – | – | LOEC (log10 uM) [7]: 1.54 ± 0.34 |
| SAg Proliferation down | 1.3 | 1.78 | 1.3 | 1.78 | – | 1.78 | – |
| 4H Pselectin up | – | – | – | – | 1.78 | – | – |
| BF4T tPA down | – | 1.3 | 1.78 | 1.3 | 1.07 ± 0.32 | – | – |
| MyoF CollagenI down | 1.3 | 1.78 | 1.78 | 1.3 | – | – | LOEC (log10 uM) (Perfluoro-1-iodohexane): 1.78 |
| hDFCGF MCP1 down | 1.3 | 1.78 | 1.3 | 1.78 | – | 1.78 | – |
| 3C HLADR down | 1.78 | – | 1.54 ± 0.34 | 1.78 | – | 1.78 | – |
| MyoF MMP1 up | 1.3 | 1.78 | – | – | – | – | LOEC (log10 uM) (Perfluoro-1-iodohexane): 1.3 |
| MyoF SRB down | 1.3 | 1.78 | 1.78 | 1.54 ± 0.34 | – | – | LOEC (log10 uM) (Perfluoro-1-iodohexane): 1.3 |
| MyoF VCAM1 down | 1.3 | 1.78 | 1.78 | 1.54 ± 0.34 | – | – | LOEC (log10 uM) (Perfluoro-1-iodohexane): 1.54 ± 0.34 |
| 3C MCP1 down | 1.3 | – | 1.54 ± 0.34 | 1.78 | – | 1.78 | – |
| hDFCGF Proliferation down | 0.573 ± 0.39 | – | 0.845 | 1.3 | – | 1.78 | LOEC (log10 uM) [4]: 1.78; LOEC (log10 uM) [7]: 1.3 |
| hDFCGF MCSF down | 1.07 ± 0.32 | – | 1.3 | 1.3 | – | – | LOEC (log10 uM) [7]: 1.78 |
| hDFCGF MMP1 down | 1.78 | – | 1.3 | 1.3 | 1.3 | – | – |
| hDFCGF VCAM1 down | 1.54 ± 0.34 | 1.78 | 1.3 | 0.801 ± 0.71 | – | 1.78 | LOEC (log10 uM) [7]: 1.78 |
| BE3C MMP1 up | 0.845 | 1.78 | – | – | 1.78 | – | LOEC (log10 uM) [10]: 1.78; LOEC (log10 uM) [7]: 1.54 ± 0.34 |
